pEC50, pIC50: −log10 of the molar value.
What was measured:
EN PA = EN PA (Influenza A virus, UniProt P15659); experiment: EN PA FRET Inhibition Assay; type: biochemical; conditions: read-out: Potency
[1] = system: Influenza strain A549 A/WSN/33 (H1N1); experiment: Influenza Antiviral Assay; type: cell-based, Influenza A virus; conditions: Influenza A virus, A549, 20 h, neuraminidase fluorescence readout, read-out: % Inhibition

SMILES | pIC50 (EN PA) | pEC50 [1]
CNC(=O)c1nn(CC2(n3cc(C)c4cccnc43)CCCC2)cc(OC(=O)OCC(C)(C)C)c1=O [Compound 801] | > 7.00 | > 4.70
CNC(=O)c1nn(CC2(n3cc(C)c4cccnc43)CCCCC2)cc(OC(=O)OC(C)(C)C)c1=O [Compound 806] | > 7.00 | > 4.70
O=C(NCc1ccccc1)c1nn(CC2(c3cccnc3)CCCC2)cc(O)c1=O [Compound 807] | > 7.00 | > 4.70
CNC(=O)c1nn(CC2(n3ccc4cccc(C)c43)CCCC2)cc(O)c1=O [Compound 808] | > 7.00 | > 4.70
O=C(NCc1ccc(F)c(Cl)c1)c1nn(CC2(c3ccncc3)CCCC2)cc(O)c1=O [Compound 809] | > 7.00 | > 4.70
CNC(=O)c1nn(CC2(n3ccc4ccc(C)cc43)CCCC2)cc(O)c1=O [Compound 810] | > 7.00 | > 4.70
O=C(NCc1ccccc1)c1nn(CC2(c3ccc(F)c(F)c3)CCCC2)cc(O)c1=O [Compound 812] | > 7.00 | > 4.70
CNC(=O)c1nn(CC2(n3c4c(c5cccnc53)CCC4)CCCC2)cc(O)c1=O [Compound 813] | > 7.00 | > 4.70
CNC(=O)c1nn(CC2(n3cc(C)c4cccnc43)CCC2)cc(O)c1=O [Compound 814] | > 7.00 | > 4.70
CNC(=O)c1nn(CC2(n3ccc4cc(F)ccc43)CCCC2)cc(O)c1=O [Compound 816] | > 7.00 | > 4.70
CNC(=O)c1nn(CC2(n3ccc4cc(Cl)cnc43)CCCC2)cc(O)c1=O [Compound 818] | > 7.00 | > 4.70
CC(C)(C)NC(=O)c1nn(CC2(n3ccc4cc(F)ccc43)CCCC2)cc(O)c1=O [Compound 819] | > 7.00 | > 4.70
Cc1cn(C2(Cn3cc(O)c(=O)c(C(=O)NC(C)(C)CO)n3)CCCC2)c2ncccc12 [Compound 820] | > 7.00 | > 4.70
Cc1cn(C2(Cn3cc(O)c(=O)c(C(=O)NCC(C)C)n3)CCCC2)c2ncccc12 [Compound 821] | > 7.00 | > 4.70
Cc1cn(C2(Cn3cc(O)c(=O)c(C(=O)NCC4(CO)CCCC4)n3)CCCC2)c2ncccc12 [Compound 822] | > 7.00 | > 4.70
Cc1cn(C2(Cn3cc(O)c(=O)c(C(=O)NCC(C)(C)CO)n3)CCCC2)c2ncccc12 [Compound 823] | > 7.00 | > 4.70
CNC(=O)c1nn(CC2(n3nc(C)c4ccccc43)CCCC2)cc(O)c1=O [Compound 824] | 6.00 to 7.00 | > 4.70
O=C(NCc1ccccc1)c1nn(CC2(c3ccncc3)CCCC2)cc(O)c1=O [Compound 825] | 6.00 to 7.00 | > 4.70
O=C1NCCCCCc2ccc3ccn(c3c2)C2(CCCC2)Cn2cc(O)c(=O)c1n2 [Compound 826] | > 7.00 | > 4.70
CCC(=O)c1nn(CC2(n3cc(C)c4cccnc43)CCCC2)cc(O)c1=O [Compound 827] | > 7.00 | > 4.70

SMILES | pIC50 (EN PA) | pEC50 [1]
CCNC(=O)c1nn(CC2(c3ccc4ccccc4c3)CCCC2)cc(O)c1=O [Compound 828] | > 7.00 | > 4.70
CC(C)(C)NC(=O)c1nn(CC2(c3ccc4ccccc4c3)CCCC2)cc(O)c1=O [Compound 829] | > 7.00 | > 4.70
CNC(=O)c1nn(CC2(c3cn(C)c4ccccc34)CCCC2)cc(O)c1=O [Compound 830] | 6.00 to 7.00 | < 4.00
CNC(=O)c1nn(CC2(c3c[nH]c4ccccc34)CCCC2)cc(O)c1=O [Compound 831] | 6.00 to 7.00 | < 4.00
O=C(NCc1ccccc1)c1nn(CC2(c3cncnc3)CCCC2)cc(O)c1=O [Compound 832] | > 7.00 | < 4.00
Cc1cn(C2(Cn3cc(O)c(=O)c(C(=O)C(C)C)n3)CCCC2)c2ncccc12 [Compound 833] | > 7.00 | > 4.70
CNC(=O)c1nn(CCN(c2ccccc2)c2ccccc2)cc(O)c1=O [Compound 834] | 6.00 to 7.00 | < 4.00
CNC(=O)c1nn(CCn2c3ccccc3c3ccccc32)cc(O)c1=O [Compound 835] | 6.00 to 7.00 | < 4.00
O=C1NCC/C=C/Cc2ccc3c(C(=O)C(F)(F)F)cn(c3c2)C2(CCCC2)Cn2cc(O)c(=O)c1n2 [Compound 836] | ≤ 6.00 | < 4.00
CNC(=O)c1nn(CCC(c2ccccc2)c2ccccc2)cc(O)c1=O [Compound 837] | 6.00 to 7.00 | < 4.00
CNC(=O)c1nn(CCN2c3ccccc3C=Cc3ccccc32)cc(O)c1=O [Compound 838] | > 7.00 | > 4.70
CNC(=O)c1nn(CCC2c3ccccc3CCc3ccccc32)cc(O)c1=O [Compound 839] | 6.00 to 7.00 | < 4.00
CNC(=O)c1nn(CCN2c3ccccc3CCc3ccccc32)cc(O)c1=O [Compound 840] | 6.00 to 7.00 | < 4.00
O=C1NCC/C=C/Cc2ccc3ccn(c3c2)C2(CCCC2)Cn2cc(O)c(=O)c1n2 [Compound 841] | 6.00 to 7.00 | > 4.70
CNC(=O)c1nn(CCN2c3ccccc3COc3ccccc32)cc(O)c1=O [Compound 842] | 6.00 to 7.00 | < 4.00
CNC(=O)c1nn(CC2(c3ccc4ccccc4n3)CCCC2)cc(O)c1=O [Compound 843] | > 7.00 | > 4.70
CNC(=O)c1nn(CC2(c3ccc4cnccc4c3)CCCC2)cc(O)c1=O [Compound 844] | > 7.00 | > 4.70
CNC(=O)c1nn(CC2(c3ccc4ncccc4c3)CCCC2)cc(O)c1=O [Compound 845] | > 7.00 | > 4.70
CNC(=O)c1nn(CC2(c3cc(C)c4ncccc4c3)CCCC2)cc(O)c1=O [Compound 846] | > 7.00 | > 4.70
CNC(=O)c1nn(CC2(c3cc(F)c4ncccc4c3)CCCC2)cc(O)c1=O [Compound 847] | > 7.00 | < 4.00

SMILES | pIC50 (EN PA) | pEC50 [1]
CNC(=O)c1nn(CC2(c3ccc4ccncc4c3)CCCC2)cc(O)c1=O [Compound 848] | > 7.00 | < 4.00
CNC(=O)c1nn(CC2(c3ccc4cccnc4c3)CCCC2)cc(O)c1=O [Compound 849] | > 7.00 | > 4.70
CNC(=O)c1nn(CC2(n3ccc4ccccc43)CCCC2)cc(O)c1=O [Compound 850] | > 7.00 | > 4.70
CNC(=O)c1nn(CC2(n3cc(C)c4cc(Cl)cnc43)CCCC2)cc(O)c1=O [Compound 851] | > 7.00 | > 4.70
CNC(=O)c1nn(CC2(n3cc(C)c4cccnc43)CCCC2)cc(OCc2ccccc2)c1=O [Compound 852] | ≤ 6.00 | < 4.00
CNC(=O)c1nn(CC2(n3ccc4ccc(C)nc43)CCCC2)cc(O)c1=O [Compound 853] | > 7.00 | > 4.70
CONC(=O)c1nn(CC2(n3cc(C)c4cccnc43)CCCC2)cc(O)c1=O [Compound 854] | > 7.00 | > 4.70
CNC(=O)c1nn(CC2(n3cnc4cncnc43)CCCC2)cc(O)c1=O [Compound 855] | 6.00 to 7.00 | < 4.00
CNC(=O)c1nn(CC2(n3ccc4c(Cl)cccc43)CCCC2)cc(O)c1=O [Compound 856] | > 7.00 | > 4.70
CNC(=O)c1nn(CC2(n3ccc4c(C)cccc43)CCCC2)cc(O)c1=O [Compound 857] | > 7.00 | > 4.70
CNC(=O)c1nn(CC2(Cn3cc(C)c4cccnc43)CCCC2)cc(O)c1=O [Compound 858] | 6.00 to 7.00 | < 4.00
CNC(=O)c1nn(CC2(n3ccc4c(F)cccc43)CCCC2)cc(O)c1=O [Compound 859] | > 7.00 | > 4.70
CNC(=O)c1nn(CC2(n3ccc4ccc(Cl)cc43)CCCC2)cc(O)c1=O [Compound 860] | > 7.00 | > 4.70
CNC(=O)c1nn(CC2(n3ccc4ccc(F)cc43)CCCC2)cc(O)c1=O [Compound 861] | > 7.00 | > 4.70
CCn1cc(C2(Cn3cc(O)c(=O)c(C(=O)NC)n3)CCCC2)c2ccccc21 [Compound 862] | 6.00 to 7.00 | < 4.00
Cc1cn(C2(Cn3cc(O)c(=O)c(C(=O)NC(C)(C)CNC(=O)OC(C)(C)C)n3)CCCC2)c2ncccc12 [Compound 863] | 6.00 to 7.00 | > 4.70
CNC(=O)c1nn(CC2(n3ccc4c(C)ccnc43)CCCC2)cc(O)c1=O [Compound 864] | > 7.00 | > 4.70
Cc1cn(C2(Cn3cc(O)c(=O)c(C(=O)NCCN)n3)CCCC2)c2ncccc12 [Compound 865] | > 7.00 | > 4.70
